# In paper PMC9025560, “A Comparison of Evans Blue and 4-(p-Iodophenyl)butyryl Albumin Binding Moieties on an Integrin αvβ6 Binding Peptide” (Pharmaceutics, 2022):
# Values joined by “and” are separate entries in the source; they are usually repeats but may differ in a detail not shown here. Identical values can stand only once. Like-named read-outs stand apart in the source and are kept apart here.
# Legend:
# [1] = tested on: prostate specific membrane antigen (PSMA); conditions: cited from earlier work
# BxPC-3 xenograft tumors [2] = assay: Biodistribution in mice bearing BxPC-3 xenograft tumors; assay type: in vivo; conditions: 4 h p.i.; for Blood uptake / Bone uptake / Brain uptake / BxPC-3 Tumor uptake / Fecal Matter radioactivity / Gall Bladder uptake / Heart uptake / Kidneys uptake / Lg. Intestines uptake / Liver uptake / Lung uptake / Muscle uptake / Pancreas uptake / Skin uptake / Sm. Intestines uptake / Spleen uptake / Stomach uptake / Urine radioactivity: i.v.
# Experimental: All animal procedures conformed to the Animal Welfare Act and were approved by the University of California, Davis Institutional Animal Care and Use Committee. Female athymic nu/nu-nude mice (6–8 weeks old) were purchased from Charles River Laboratories (Wilmington, MA, USA) and provided food and water on an ad libitum basis. BxPC-3 xenografts were implanted according to previous methods. Briefly, BxPC-3 cells were evaluated by flow cytometry to confirm integrin αvβ6 expression levels, injected subcutaneously into the left flank [5 million in 100 μL of a 1:1 mixture of serum-free RPMI and GFR Matrigel (Corning, New York, NY, USA)], and allowed to grow for approximately 3 weeks until tumors reached a diameter of 0.5–1 cm.
# For biodistribution studies the [^64Cu]1–4 (3.7–5.55 MBq) in PBS (100 μL, pH 7.2) was injected intravenously (i.v.) via catheter into the tail vein. Following a conscious uptake period, the mice were anesthetized (5% isoflurane), euthanized, and dissected ([^64Cu]1 and [^64Cu]2, n = 3/radiolabeled peptide/time point; 4, 24, and 48 h p.i.; the 72 h time point was obtained from the imaging animals after the 72 h PET/CT scans; compounds [^64Cu]3 and [^64Cu]4, n = 2/radiolabeled compound at 4 h p.i.). Tissues were rapidly collected, weighed, and radioactivity measured with a γ-counter. Decay-corrected radioactivity concentrations are expressed as the percentage of injected dose per gram of tissue (% ID/g). Data are reported as mean ± standard deviation (SD) (Figure S20, S21 and S25).
# [3] = set-up: method as in PMID 23236020, PMID 28094532; conditions: cited from earlier work
# integrin αvβ6 [4] = molecular target: T1, integrin αvβ6 (Homo sapiens, UniProt P06756+P18564); set-up: method as in PMID 34783573; conditions: competitive ELISA against biotinylated LAP; read-out: IC50, integrin αvβ6 affinity; cited from earlier work
# T1 construct: purchased R&D Systems
# T1 sequence (P06756 31-992 limits assumed): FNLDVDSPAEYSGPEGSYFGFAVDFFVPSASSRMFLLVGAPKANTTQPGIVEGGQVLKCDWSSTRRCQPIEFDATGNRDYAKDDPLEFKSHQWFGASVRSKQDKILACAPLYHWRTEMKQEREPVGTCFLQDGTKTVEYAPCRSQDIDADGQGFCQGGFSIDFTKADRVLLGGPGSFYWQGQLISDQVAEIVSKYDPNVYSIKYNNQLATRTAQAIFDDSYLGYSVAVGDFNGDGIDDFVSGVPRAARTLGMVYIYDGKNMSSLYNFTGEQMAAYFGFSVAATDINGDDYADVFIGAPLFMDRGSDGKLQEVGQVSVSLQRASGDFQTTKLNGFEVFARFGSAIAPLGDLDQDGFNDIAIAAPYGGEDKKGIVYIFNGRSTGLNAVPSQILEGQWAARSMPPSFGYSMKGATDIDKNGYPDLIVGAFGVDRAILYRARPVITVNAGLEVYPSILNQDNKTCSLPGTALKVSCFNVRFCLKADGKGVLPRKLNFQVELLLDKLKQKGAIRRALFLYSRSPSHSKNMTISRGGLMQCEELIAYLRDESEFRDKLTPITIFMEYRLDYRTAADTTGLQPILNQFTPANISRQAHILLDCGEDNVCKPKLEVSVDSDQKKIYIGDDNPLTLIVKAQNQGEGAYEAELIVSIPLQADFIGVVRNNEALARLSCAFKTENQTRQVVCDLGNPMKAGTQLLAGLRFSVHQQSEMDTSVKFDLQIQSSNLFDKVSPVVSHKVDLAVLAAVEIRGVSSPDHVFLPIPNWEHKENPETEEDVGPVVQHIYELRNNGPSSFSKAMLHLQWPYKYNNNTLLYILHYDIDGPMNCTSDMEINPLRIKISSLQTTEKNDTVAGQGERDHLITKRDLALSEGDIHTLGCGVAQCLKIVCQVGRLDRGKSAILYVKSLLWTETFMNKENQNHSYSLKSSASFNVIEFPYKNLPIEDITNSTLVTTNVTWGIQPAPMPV
# T1 sequence (P18564 22-707 limits assumed): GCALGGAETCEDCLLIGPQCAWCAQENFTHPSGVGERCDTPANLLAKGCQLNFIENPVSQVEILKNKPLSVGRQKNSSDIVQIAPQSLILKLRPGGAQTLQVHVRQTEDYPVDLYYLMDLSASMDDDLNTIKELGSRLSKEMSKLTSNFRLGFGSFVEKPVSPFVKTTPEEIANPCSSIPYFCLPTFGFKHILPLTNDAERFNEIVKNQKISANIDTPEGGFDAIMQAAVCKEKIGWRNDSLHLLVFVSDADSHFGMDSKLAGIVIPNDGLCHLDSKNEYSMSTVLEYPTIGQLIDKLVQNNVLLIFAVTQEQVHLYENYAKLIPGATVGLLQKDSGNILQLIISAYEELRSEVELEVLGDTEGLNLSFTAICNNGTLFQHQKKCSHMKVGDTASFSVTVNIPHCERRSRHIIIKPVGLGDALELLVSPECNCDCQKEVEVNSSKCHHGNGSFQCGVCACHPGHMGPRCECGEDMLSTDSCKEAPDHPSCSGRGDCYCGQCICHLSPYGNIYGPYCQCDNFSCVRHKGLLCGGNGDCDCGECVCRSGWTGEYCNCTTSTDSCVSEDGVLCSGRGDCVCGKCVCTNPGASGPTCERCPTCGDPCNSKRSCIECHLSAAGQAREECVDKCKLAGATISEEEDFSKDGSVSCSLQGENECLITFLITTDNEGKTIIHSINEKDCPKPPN
# integrin αvβ6 [5] = molecular target: T1, integrin αvβ6; assay: Integrin αvβ6 affinity competitive binding ELISA against biotinylated LAP
# Experimental: Affinity for the integrin αvβ6 was determined by competitive binding ELISA of [^NatCu]1 and [^NatCu]2 against biotinylated-LAP (G&P Biosciences, Santa Clara, CA, USA) as previously described to determine the half-maximum inhibitory concentration (IC50). Briefly, in a 96 well Nunc Immuno maxisorp plate, capturing anti-αv antibody (P2W7, 5 μg/mL, Abcam, MA, USA) was plated (50 μL/well) at 37 °C for 1 h, washed with PBS (3×), and blocked overnight with blocking buffer (300 μL/well, 0.5% non-fat dry milk powder (w/v), 1% Tween 20, in PBS). It was then washed with wash buffer that consisted of 2 mmol/L of Tris buffer (pH = 7.6), 150 mmol/L sodium chloride, 1 mmol/L manganese chloride, and 0.1% Tween 20 (v/v) in deionized water (3×). […] The ExtrAvidin HRP was detected with TMB One solution (50 μL/well; Promega Corp., Madison, WI, USA) for 10–15 min at room temperature. The reaction was stopped by adding 1N sulfuric acid (H2SO4, 50 μL/well; EMD, MA, USA) and the absorbance was measured in a Multiscan Ascent plate reader (Thermo Fisher, Waltham, MA, USA) at 450 nm. Half-maximal inhibitory concentration (IC50) of peptides was determined by fitting to sigmoidal dose-response model in GraphPad Prism 8.0 (GraphPad, CA, USA). […]
# [6] = set-up: method as in PMID 32383076, PMID 24267053; conditions: cited from earlier work
# human serum protein = tested on: human serum protein; set-up: method as in PMID 34783573; conditions: either serum albumin (human); cited from earlier work
# BxPC-3 xenograft tumors [7] = tested on: BxPC-3 xenograft tumors; set-up: method as in PMID 34783573; conditions: cited from earlier work
# mouse serum protein = tested on: mouse serum protein; set-up: method as in PMID 34783573; conditions: either serum albumin (mouse); cited from earlier work
# [8] = set-up: method as in PMID 26771036, PMID 26251416; conditions: cited from earlier work
# [9] = tested on: U87MG glioblastoma tumor model; conditions: cited from earlier work
# [10] = set-up: method as in PMID 29653971; conditions: clinical trials; cited from earlier work
# somatostatin receptor = conditions: cited from earlier work; for Tumor accumulation: 24 h
molecule,measurement,setting,value
Cc1cc(-c2ccc(NC(=O)[C@H](CCCCNC(=O)CCN3C(=O)CC(SCC(=O)NCC4CCC(C(=O)N[C@H](Cc5ccc6ccccc6c5)C(=O)NCCCC[C@H](NC(=O)N[C@@H](CCC(=O)O)C(=O)O)C(=O)O)CC4)C3=O)NC(=O)CN3CCN(CC(=O)O)CCN(CC(=O)O)CCN(CC(=O)O)CC3)c(C)c2)ccc1N=Nc1ccc2c(S(=O)(=O)O)cc(S(=O)(=O)O)c(N)c2c1O (stereo partly shown) [EB-ABM PSMA-617],Kidney accumulation,[1]; 4 h,> 20 % ID/g
same,Tumor accumulation,[1]; from 4 h to 48 h,65.6–77.3 % ID/g
"Cc1cc(-c2ccc(NC(=O)CCC(=O)NCCCC[C@H](NC(=O)CN3CCN(CC(=O)O)CCN(CC(=O)O)CCN(CC(=O)O)CC3)C(N)=O)c(C)c2)ccc1N=Nc1ccc2c(S(=O)(=O)O)cc(S(=O)(=O)O)c(N)c2c1O [[^64Cu]3, [^64Cu]Cu DOTA-EB, metal not drawn]",Tumor-Kidney ratio,BxPC-3 xenograft tumors [2],1.34 ±0.15
same,Tumor-Lg Intestines ratio,BxPC-3 xenograft tumors [2],1.49 ±0.68
same,Tumor-Liver ratio,BxPC-3 xenograft tumors [2],1.2–1.3
same,Tumor-Sm Intestines ratio,BxPC-3 xenograft tumors [2],2.05 ±0.43
same,Tumor-Stomach ratio,BxPC-3 xenograft tumors [2],2.52 ±0.58
same,Blood uptake,BxPC-3 xenograft tumors [2],38.9 ± 10.4 % ID/g
same,Bone uptake,BxPC-3 xenograft tumors [2],4.81 ± 0.79 % ID/g
same,Brain uptake,BxPC-3 xenograft tumors [2],0.97 ± 0.19 % ID/g
same,BxPC-3 Tumor uptake,BxPC-3 xenograft tumors [2],24.82 ± 0.90 % ID/g
same,Fecal Matter radioactivity,BxPC-3 xenograft tumors [2],33.79 ± 0.90 % ID/g
same,Gall Bladder uptake,BxPC-3 xenograft tumors [2],28.57 ± 10.67 % ID/g
same,Heart uptake,BxPC-3 xenograft tumors [2],12.05 ± 2.69 % ID/g
same,Kidneys uptake,BxPC-3 xenograft tumors [2],18.6 ± 1.4 % ID/g
same,Lg. Intestines uptake,BxPC-3 xenograft tumors [2],12.75 ± 0.65 % ID/g
same,Liver uptake,BxPC-3 xenograft tumors [2],22.01 ± 4.74 % ID/g
same,Lung uptake,BxPC-3 xenograft tumors [2],19.40 ± 1.33 % ID/g
same,Muscle uptake,BxPC-3 xenograft tumors [2],4.64 ± 1.40 % ID/g
same,Pancreas uptake,BxPC-3 xenograft tumors [2],6.40 ± 1.03 % ID/g
same,Skin uptake,BxPC-3 xenograft tumors [2],14.77 ± 1.82 % ID/g
same,Sm. Intestines uptake,BxPC-3 xenograft tumors [2],12.45 ± 3.06 % ID/g
same,Spleen uptake,BxPC-3 xenograft tumors [2],8.10 ± 1.19 % ID/g
same,Stomach uptake,BxPC-3 xenograft tumors [2],10.16 ± 2.71 % ID/g
same,Urine radioactivity,BxPC-3 xenograft tumors [2],63.25 ± 27.58 % ID/g
same,Blood uptake,BxPC-3 xenograft tumors [2]; listed as [64Cu]3,38.88 ± 10.37 % ID/g
same,Kidneys uptake,BxPC-3 xenograft tumors [2]; listed as [64Cu]3,18.59 ± 1.41 % ID/g
same,Tumor-Blood ratio,BxPC-3 xenograft tumors [2]; listed as [64Cu]3,0.66 ±0.15
same,Tumor-Liver ratio,BxPC-3 xenograft tumors [2]; listed as [64Cu]3,1.15 ±0.21
same,Tumor-Muscle ratio,BxPC-3 xenograft tumors [2]; listed as [64Cu]3,5.58 ±1.49
"NC(=O)[C@H](CCCCNC(=O)[C@H](CC(=O)O)NC(=O)CCCNC(=O)CCCc1ccc(I)cc1)NC(=O)CN1CCN(CC(=O)O)CCN(CC(=O)O)CCN(CC(=O)O)CC1 [[^64Cu]4, [^64Cu]Cu DOTA-IP, metal not drawn]",Tumor-Kidney ratio,BxPC-3 xenograft tumors [2],1.83 ±0.19
same,Tumor-Lg Intestines ratio,BxPC-3 xenograft tumors [2],2.83 ±0.36
same,Tumor-Liver ratio,BxPC-3 xenograft tumors [2],1.2–1.3
same,Tumor-Sm Intestines ratio,BxPC-3 xenograft tumors [2],2.31 ±0.27
same,Tumor-Stomach ratio,BxPC-3 xenograft tumors [2],3.31 ±0.37
same,Blood uptake,BxPC-3 xenograft tumors [2],9.5 ± 1.3 % ID/g
same,Bone uptake,BxPC-3 xenograft tumors [2],1.19 ± 0.06 % ID/g
same,Brain uptake,BxPC-3 xenograft tumors [2],0.36 ± 0.05 % ID/g
same,BxPC-3 Tumor uptake,BxPC-3 xenograft tumors [2],7.99 ± 1.93 % ID/g
same,Fecal Matter radioactivity,BxPC-3 xenograft tumors [2],2.54 ± 1.41 % ID/g
same,Gall Bladder uptake,BxPC-3 xenograft tumors [2],10.23 ± 3.01 % ID/g
same,Heart uptake,BxPC-3 xenograft tumors [2],3.07 ± 0.01 % ID/g
same,Kidneys uptake,BxPC-3 xenograft tumors [2],4.34 ± 0.61 % ID/g and 4.3 % ID/g
same,Lg. Intestines uptake,BxPC-3 xenograft tumors [2],2.90 ± 1.05 % ID/g
same,Liver uptake,BxPC-3 xenograft tumors [2],6.21 ± 1.51 % ID/g
same,Lung uptake,BxPC-3 xenograft tumors [2],5.01 ± 0.69 % ID/g
same,Muscle uptake,BxPC-3 xenograft tumors [2],1.28 ± 0.03 % ID/g
same,Pancreas uptake,BxPC-3 xenograft tumors [2],1.50 ± 0.09 % ID/g
same,Skin uptake,BxPC-3 xenograft tumors [2],4.38 ± 0.77 % ID/g
same,Sm. Intestines uptake,BxPC-3 xenograft tumors [2],3.53 ± 1.24 % ID/g
same,Spleen uptake,BxPC-3 xenograft tumors [2],2.10 ±0.24 % ID/g
same,Stomach uptake,BxPC-3 xenograft tumors [2],2.39 ± 0.31 % ID/g
same,Urine radioactivity,BxPC-3 xenograft tumors [2],72.25 ± 35.13 % ID/g
same,Blood uptake,BxPC-3 xenograft tumors [2]; listed as [64Cu]4,9.51 ± 1.32 % ID/g
same,Tumor-Blood ratio,BxPC-3 xenograft tumors [2]; listed as [64Cu]4,0.83 ±0.09
same,Tumor-Liver ratio,BxPC-3 xenograft tumors [2]; listed as [64Cu]4,1.29 ± 0.001
same,Tumor-Muscle ratio,BxPC-3 xenograft tumors [2]; listed as [64Cu]4,6.25 ±1.37
Nc1nc2ncc(CNc3ccc(C(=O)N[C@@H](CCC(=O)O)C(=O)O)cc3)nc2c(=O)[nH]1 [folic acid],Kidney accumulation,[3]; 4 h,70 % ID/g
same,Tumor accumulation,[3]; 24 h p.i.,7 % ID/g
O=C(O)CC[C@H](NC(=O)N[C@@H](CCCCNC(=O)[C@H](Cc1ccc2ccccc2c1)NC(=O)[C@H]1CC[C@H](CNC(=O)CN2CCN(CC(=O)O)CCN(CC(=O)O)CCN(CC(=O)O)CC2)CC1)C(=O)O)C(=O)O [non-ABM PSMA-617],Tumor accumulation,[1]; 24 h,38 % ID/g
DOTA-αvβ6-BP,IC50,integrin αvβ6 [4],28 ± 3 nM
[NatCu]Cu DOTA-EB-αvβ6-BP [[^NatCu]1],IC50,integrin αvβ6 [5],14 ± 2 nM
[NatCu]Cu DOTA-IP-αvβ6-BP [[^NatCu]2],IC50,integrin αvβ6 [5],19 ± 5 nM
[^18F]AlF NOTA-IP-ABM-αvβ6-BP,Fold lower kidney retention than [18F]AlF NOTA-A20FMDV2-peptide,[6],> 3.5 fold
[^64Cu]Cu DOTA-αvβ6-BP,Binding to serum albumin,human serum protein,< 29%
same,BxPC-3 Tumor uptake,"BxPC-3 xenograft tumors [7]; 4 h, same BxPC-3 tumor model",1.61 ± 0.70 % ID/g
same,Kidney accumulation,BxPC-3 xenograft tumors [7]; 4 h,20.37 ± 1.67 % ID/g
same,Kidney accumulation,BxPC-3 xenograft tumors [7]; 48 h,6.81 ± 1.36 % ID/g
same,Binding to serum albumin,mouse serum protein,< 29%
[^64Cu]Cu NOTA-EB,Blood accumulation,[8]; 4 h,~ 15 % ID/g
same,Blood accumulation,[8]; 1 d,~ 10 % ID/g
[^64Cu]Cu NOTA-EB-cRGDfK,Fold improvement in tumor accumulation vs. [64Cu]Cu NOTA-cRGDfK,[9],> 16 fold
same,Tumor accumulation,[9],16.6 % ID/g
[^64Cu]Cu NOTA-cRGDfK,Tumor accumulation,[9],< 1.1 % ID/g
[^177Lu]Lu DOTA-EB-TATE,Fold increase in tumor dose delivery,[10],7.9 fold
same,Kidney accumulation,somatostatin receptor; 4 h,~ 30 % ID/g
same,Tumor accumulation,somatostatin receptor,78.8 % ID/g
same,Kidney accumulation,somatostatin receptor; 72 h,~ 15 % ID/g
[^177Lu]Lu DOTA-TATE,Tumor accumulation,somatostatin receptor,9.3 % ID/g
